Reference: patent US8802597B2, “Herbicidal pyrimidines” (E I du Pont de Nemours and Company, priority 2003, dated 2014)

What was measured:
[1] = system: water seeded rice seedlings (Oryza sativa cv. ‘Japonica-M202’); assay: Test E flooded paddy water application; type: in vivo; details: Flood, 21 days, scale 0 to 100 (0 no effect, 100 complete control)
Method in brief: (§1)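 Weeds sown in sterilized Tama silt loam (2.6% organic matter), greenhouse 29.5/26.7° C, 16-h photoperiod; at 2.0–2.5-leaf stage pots flooded to 3 cm and compound added to paddy water. Visual rating vs untreated controls after 21 days, 0 (no effect) to 100 (complete control).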

[2] = system: ducksalad (Heteranthera limosa); assay: Test E flooded paddy water application; type: in vivo; details: Flood, 21 days, scale 0 to 100 (0 no effect, 100 complete control)
Method in brief: as §1

[3] = system: late watergrass (Echinochloa oryzicola); assay: Test E flooded paddy water application; type: in vivo; details: Flood, 21 days, scale 0 to 100 (0 no effect, 100 complete control)
Method in brief: as §1

[4] = system: smallflower umbrella sedge (Cyperus difformis); assay: Test E flooded paddy water application; type: in vivo; details: Flood, 21 days, scale 0 to 100 (0 no effect, 100 complete control)
Method in brief: as §1

[5] = system: rice flatsedge (Cyperus iria); assay: Test E flooded paddy water application; type: in vivo; details: Flood, 21 days, scale 0 to 100 (0 no effect, 100 complete control)
Method in brief: as §1

[6] = system: bearded (brdd.) sprangletop (Leptochloa fusca ssp. fascicularis); assay: Test E flooded paddy water application; type: in vivo; details: Flood, 21 days, scale 0 to 100 (0 no effect, 100 complete control)
Method in brief: as §1

[7] = system: junglerice (Echinochloa colona); assay: Test E flooded paddy water application; type: in vivo; details: Flood, 21 days, scale 0 to 100 (0 no effect, 100 complete control)
Method in brief: as §1

[8] = system: early watergrass (Echinochloa oryzoides); assay: Test E flooded paddy water application; type: in vivo; details: Flood, 21 days, scale 0 to 100 (0 no effect, 100 complete control)
Method in brief: as §1

[9] = system: transplanted rice seedlings (Oryza sativa cv. ‘Japonica-M202’); assay: Test E flooded paddy water application; type: in vivo; details: Flood, 21 days, scale 0 to 100 (0 no effect, 100 complete control)
Method in brief: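 Response scored visually on a 0–100 scale (100 = complete control) at 21 days against untreated pots. Treatment was into paddy water 3 cm deep over silt loam, with plants at the 2.0–2.5-leaf stage, grown under 16-h light at 29.5/26.7 °C day/night.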

Nc1nc(-c2ccc(Cl)cc2)nc(C(=O)O)c1Cl [Compound 65, 6-amino-5-chloro-2-(4-chlorophenyl)-4-pyrimidinecarboxylic acid]
melting point: 158 to 160 °C | Rice, Water Seeded plant response rating ([1]; 32 g ai/ha): 0 | Rice, Water Seeded plant response rating ([1]; 64 g ai/ha): 0 | Rice, Water Seeded plant response rating ([1]; 125 g ai/ha): 0 | Rice, Water Seeded plant response rating ([1]; 250 g ai/ha): 10 | Plant response rating, Rice, Water Seeded ([1]; 16 g ai/ha): 0 | Ducksalad plant response rating ([2]; 32 g ai/ha): 100 | Ducksalad plant response rating ([2]; 64 g ai/ha): 100 | Ducksalad plant response rating ([2]; 125 g ai/ha): 100 | Ducksalad plant response rating ([2]; 250 g ai/ha): 100 | Plant response rating, Ducksalad ([2]; 16 g ai/ha): 100 | Watergrass, Late plant response rating ([3]; 32 g ai/ha): 0 | Watergrass, Late plant response rating ([3]; 64 g ai/ha): 0 | Watergrass, Late plant response rating ([3]; 125 g ai/ha): 0 | Watergrass, Late plant response rating ([3]; 250 g ai/ha): 25 | Plant response rating, Watergrass, Late ([3]; 16 g ai/ha): 0 | Sedge, Umbrella plant response rating ([4]; 32 g ai/ha): 80 | Sedge, Umbrella plant response rating ([4]; 64 g ai/ha): 85 | Sedge, Umbrella plant response rating ([4]; 125 g ai/ha): 100 | Sedge, Umbrella plant response rating ([4]; 250 g ai/ha): 100 | Plant response rating, Sedge, Umbrella ([4]; 16 g ai/ha): 20 | Flatsedge, Rice plant response rating ([5]; 32 g ai/ha): 80 | Flatsedge, Rice plant response rating ([5]; 64 g ai/ha): 100 | Flatsedge, Rice plant response rating ([5]; 125 g ai/ha): 100 | Flatsedge, Rice plant response rating ([5]; 250 g ai/ha): 100 | Plant response rating, Flatsedge, Rice ([5]; 16 g ai/ha): 0 | Sprangletop, Brdd. plant response rating ([6]; 32 g ai/ha): 0 | Sprangletop, Brdd. plant response rating ([6]; 64 g ai/ha): 0 | Sprangletop, Brdd. plant response rating ([6]; 125 g ai/ha): 40 | Sprangletop, Brdd. plant response rating ([6]; 250 g ai/ha): 40 | Plant response rating, Sprangletop, Brdd. ([6]; 16 g ai/ha): 0 | Junglerice plant response rating ([7]; 32 g ai/ha): 0 | Junglerice plant response rating ([7]; 64 g ai/ha): 0 | Junglerice plant response rating ([7]; 125 g ai/ha): 40 | Junglerice plant response rating ([7]; 250 g ai/ha): 40 | Plant response rating, Junglerice ([7]; 16 g ai/ha): 0 | Watergrass, Early plant response rating ([8]; 32 g ai/ha): 0 | Watergrass, Early plant response rating ([8]; 64 g ai/ha): 0 | Watergrass, Early plant response rating ([8]; 125 g ai/ha): 0 | Watergrass, Early plant response rating ([8]; 250 g ai/ha): 10 | Plant response rating, Watergrass, Early ([8]; 16 g ai/ha): 0 | Rice, Transplanted plant response rating ([9]; 32 g ai/ha): 0 | Rice, Transplanted plant response rating ([9]; 64 g ai/ha): 0 | Rice, Transplanted plant response rating ([9]; 125 g ai/ha): 0 | Rice, Transplanted plant response rating ([9]; 250 g ai/ha): 0 | Plant response rating, Rice, Transplanted ([9]; 16 g ai/ha): 0

Nc1nc(C2CC2)nc(C(=O)OCc2ccccc2)c1Cl [Compound 78, phenylmethyl 6-amino-5-chloro-2-cyclopropyl-4-pyrimidinecarboxylate]
melting point: 126 to 128 °C

Nc1nc(C2CC2)nc(C(=O)[O-])c1Br.[Na+] [Compound 113, 6-amino-5-bromo-2-cyclopropyl-4-pyrimidinecarboxylic acid monosodium salt]
melting point: > 300 °C
